For the experiment, the target named is T1, human GLP-1R receptor (Homo sapiens, UniProt P43220).
T1 construct: expressed in transfected cells
Put plainly: GLP-1R low expression cell assay (cAMP TR-FRET, CHO-K1_hGLP-1Rlow_clone10 cells). It counts as cell-based. The note with it: for EC50: cAMP TR-FRET, 30 min at 25° C.; for Emax: maximum activation relative to control GLP-1 peptide agonist. In a few lines: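 CHO-K1 cells stably expressing low surface human GLP-1R (clone10), 1,000 cells/well, exposed to 10-point 3-fold compound dilutions for 30 min at 25 °C. cAMP measured by TR-FRET (Eu-cAMP tracer/ULight-anti-cAMP, 15 min). EC50 from Hill fit of duplicate percent activation relative to a parallel GLP-1 control agonist.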
(Time-resolved FRET reads energy transfer from a long-lived donor to a nearby acceptor.)

For orientation: EC50 means the concentration needed to bring the measured effect to its halfway point. Read a high EC50 as weaker potency. Usually Emax stands for the greatest response seen or fitted, relative to the assay's reference.

Molecules are shown by their SMILES.

T1 sequence (P43220 24-463): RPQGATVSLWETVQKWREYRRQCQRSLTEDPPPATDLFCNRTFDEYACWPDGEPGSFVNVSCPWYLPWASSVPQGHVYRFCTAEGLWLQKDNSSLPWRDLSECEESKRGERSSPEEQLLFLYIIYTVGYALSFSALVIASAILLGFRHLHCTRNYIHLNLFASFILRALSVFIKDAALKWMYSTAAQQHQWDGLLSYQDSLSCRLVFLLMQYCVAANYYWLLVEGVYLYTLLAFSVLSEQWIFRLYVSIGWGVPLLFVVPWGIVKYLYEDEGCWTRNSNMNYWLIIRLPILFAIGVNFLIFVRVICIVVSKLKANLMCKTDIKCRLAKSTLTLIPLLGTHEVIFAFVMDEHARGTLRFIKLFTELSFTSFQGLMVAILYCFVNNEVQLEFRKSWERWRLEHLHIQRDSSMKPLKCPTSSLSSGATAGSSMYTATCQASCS

In the case of `N#Cc1ccc(COc2cccc(C3CCN(Cc4nc5c(OC(F)F)cc(C(=O)O)cc5n4C[C@@H]4CCS4(=O)=O)CC3)n2)c(F)c1` [Compound 110, (S)-2-((4-(6-((4-Cyano-2-fluorobenzyl)oxy)pyridin-2-yl)piperidin-1-yl)methyl)-4-(difluoromethoxy)-1-((1,1-dioxidothietan-2-yl)methyl)-1H-benzo[d]imidazole-6-carboxylic acid], the EC50 is under 10 nM and the Emax is over 85%.

The compound `Cn1c(CN2CCC(c3cccc(OCc4ccc(C#N)cc4F)n3)CC2)nc2c(N3CCOCC3)cc(C(=O)O)cc21` [Compound 112, 2-((4-(6-((4-cyano-2-fluorobenzyl)oxy)pyridin-2-yl)piperidin-1-yl)methyl)-1-methyl-4-morpholino-1H-benzo[d]imidazole-6-carboxylic acid] showed an EC50 of 100 to 1000 nM and an Emax of over 85%.

Compound `Cn1c(CN2CCC(c3cccc(OCc4ccc(C#N)cc4F)n3)CC2)nc2c(O)cc(C(=O)O)cc21` [Compound 114, 2-((4-(6-((4-Cyano-2-fluorobenzyl)oxy)pyridin-2-yl)piperidin-1-yl)methyl)-4-hydroxy-1-methyl-1H-benzo[d]imidazole-6-carboxylic acid] displayed an EC50 of under 10 nM and a maximal response (Emax) of over 85%.

With `Cn1c(CN2CCC(c3cccc(OCc4ccc(C#N)cc4F)n3)CC2)nc2c(N)cc(C(=O)O)cc21` [Compound 115, 4-amino-2-((4-(6-((4-cyano-2-fluorobenzyl)oxy)pyridin-2-yl)piperidin-1-yl)methyl)-1-methyl-1H-benzo[d]imidazole-6-carboxylic acid], the EC50 is under 10 nM and the Emax was over 85%.

For `CC(=O)Nc1cc(C(=O)O)cc2c1nc(CN1CCC(c3cccc(OCc4ccc(C#N)cc4F)n3)CC1)n2C` [Compound 116, 4-acetamido-2-((4-(6-((4-cyano-2-fluorobenzyl)oxy)pyridin-2-yl)piperidin-1-yl)methyl)-1-methyl-1H-benzo[d]imidazole-6-carboxylic acid], the concentration giving a half-maximal response (EC50) fell in the range of 10 to 100 nM and the Emax was over 85%.

On to `COc1cc(C(=O)O)c(F)c2c1nc(CN1CCC(c3cccc(OCc4ccc(C#N)cc4F)n3)CC1)n2C[C@@H]1CCO1` [Compound 117, (S)-2-((4-(6-((4-Cyano-2-fluorobenzyl)oxy)pyridin-2-yl)piperidin-1-yl)methyl)-7-fluoro-4-methoxy-1-(oxetan-2-ylmethyl)-1H-benzo[d]imidazole-6-carboxylic acid], for which the EC50 was under 10 nM and the Emax is over 85%.

The compound `C[C@@H](c1nc2c(OC(F)F)cc(C(=O)O)cc2n1C)N1CCC(c2cccc(OCc3ccc(C#N)cc3F)n2)CC1` [Compound 119, (S)-2-(1-(4-(6-((4-Cyano-2-fluorobenzyl)oxy)pyridin-2-yl)piperidin-1-yl)ethyl)-4-(difluoromethoxy)-1-methyl-1H-benzo[d]imidazole-6-carboxylic acid] had an EC50 of 10 to 100 nM and a maximum response (Emax) of 50 to 85%.

Compound `Cn1c(Cc2ccc(-c3cccc(OCc4ccc(C#N)cc4F)n3)cc2F)nc2c(OC(F)F)cc(C(=O)O)cc21` [Compound 120, 2-(4-(6-((4-Cyano-2-fluorobenzyl)oxy)pyridin-2-yl)-2-fluorobenzyl)-4-(difluoromethoxy)-1-methyl-1H-benzo[d]imidazole-6-carboxylic acid] returned a concentration giving a half-maximal response (EC50) of under 10 nM and a maximal response (Emax) of over 85%.

As for `Cn1c(CN2CCC(c3cccc(OCc4ccc(C#N)cc4F)n3)CC2)nc2c(OCC(F)(F)F)cc(C(=O)O)cc21` [Compound 121, 2-((4-(6-((4-Cyano-2-fluorobenzyl)oxy)pyridin-2-yl)piperidin-1-yl)methyl)-1-methyl-4-(2,2,2-trifluoroethoxy)-1H-benzo[d]imidazole-6-carboxylic acid], the concentration giving a half-maximal response (EC50) was under 10 nM and the maximal effect (Emax) was over 85%.

`C[C@H](c1nc2c(OC(F)F)cc(C(=O)O)cc2n1C)N1CCC(c2cccc(OCc3ccc(C#N)cc3F)n2)CC1` [Compound 122, (R)-2-(1-(4-(6-((4-Cyano-2-fluorobenzyl)oxy)pyridin-2-yl)piperidin-1-yl)ethyl)-4-(difluoromethoxy)-1-methyl-1H-benzo[d]imidazole-6-carboxylic acid] returned a 50% effective concentration (EC50) of over 1000 nM and an Emax of over 85%.

Take `Cn1c(CN2CCC(c3cccc4c3O[C@@H](c3ccc(C#N)cc3F)CO4)CC2)nc2c(OC(F)F)cc(C(=O)O)cc21` [Compound 123, (S)-2-((4-(3-(4-Cyano-2-fluorophenyl)-2,3-dihydrobenzo[b][1,4]dioxin-5-yl)piperidin-1-yl)methyl)-4-(difluoromethoxy)-1-methyl-1H-benzo[d]imidazole-6-carboxylic acid]: the EC50 was 10 to 100 nM and the maximal effect (Emax) is over 85%.

The compound `Cn1c(CN2CCC(c3cccc4c3O[C@H](c3ccc(C#N)cc3F)CO4)CC2)nc2c(OC(F)F)cc(C(=O)O)cc21` [Compound 124, (R)-2-((4-(3-(4-Cyano-2-fluorophenyl)-2,3-dihydrobenzo[b][1,4]dioxin-5-yl)piperidin-1-yl)methyl)-4-(difluoromethoxy)-1-methyl-1H-benzo[d]imidazole-6-carboxylic acid] showed an EC50 of over 1000 nM and an Emax of 25 to 50%.

Consider `Cn1c(CN2CCC(c3cccc(OCc4ccc(C#N)cc4F)n3)CC2)nc2c(OC(F)(F)F)cc(C(=O)O)cc21` [Compound 125, 2-((4-(6-((4-Cyano-2-fluorobenzyl)oxy)pyridin-2-yl)piperidin-1-yl)methyl)-1-methyl-4-(trifluoromethoxy)-1H-benzo[d]imidazole-6-carboxylic acid], for which the EC50 was in the range of 10 to 100 nM and the maximum response (Emax) was over 85%.

With `Cn1c(CN2CCC(c3cccc(OCc4ccc(C#N)cc4F)n3)CC2)nc2c(C(C)(C)O)cc(C(=O)O)cc21` [Compound 126, 2-((4-(6-((4-cyano-2-fluorobenzyl)oxy)pyridin-2-yl)piperidin-1-yl)methyl)-4-(2-hydroxypropan-2-yl)-1-methyl-1H-benzo[d]imidazole-6-carboxylic acid], the EC50 was over 1000 nM and the Emax is 50 to 85%.

Turning to `CC(=O)Oc1cc(C(=O)O)cc2c1nc(CN1CCC(c3cccc(OCc4ccc(C#N)cc4F)n3)CC1)n2C` [Compound 128, 4-Acetoxy-2-((4-(6-((4-cyano-2-fluorobenzyl)oxy)pyridin-2-yl)piperidin-1-yl)methyl)-1-methyl-1H-benzo[d]imidazole-6-carboxylic acid], the concentration for a half-maximal effect (EC50) is 10 to 100 nM and the Emax was over 85%.

`CS(=O)(=O)Nc1cc(C(=O)O)cc2c1nc(CN1CCC(c3cccc(OCc4ccc(C#N)cc4F)n3)CC1)n2C[C@@H]1CCO1` [Compound 129, (S)-2-((4-(6-((4-cyano-2-fluorobenzyl)oxy)pyridin-2-yl)piperidin-1-yl)methyl)-4-(methylsulfonamido)-1-(oxetan-2-ylmethyl)-1H-benzo[d]imidazole-6-carboxylic acid] registered a concentration giving a half-maximal response (EC50) of 10 to 100 nM and an Emax of over 85%.

Regarding `Cn1c(CN2CCC(c3cccc(COc4ccc(C#N)cc4F)n3)CC2)nc2c(OC(F)F)cc(C(=O)O)cc21` [Compound 130, 2-((4-(6-((4-Cyano-2-fluorophenoxy)methyl)pyridin-2-yl)piperidin-1-yl)methyl)-4-(difluoromethoxy)-1-methyl-1H-benzo[d]imidazole-6-carboxylic acid], the EC50 was over 1000 nM and the Emax is 25 to 50%.

`CN(c1nc2c(OC(F)F)cc(C(=O)O)cc2n1C[C@@H]1CCO1)[C@H]1CC[C@@H](c2cccc(OCc3ccc(C#N)cc3F)n2)CC1` [Compound 131, 2-(((1s,4R)-4-(6-((4-cyano-2-fluorobenzyl)oxy)pyridin-2-yl)cyclohexyl) (methyl)amino)-4-(difluoromethoxy)-1-(((S)-oxetan-2-yl)methyl)-1H-benzo[d]imidazole-6-carboxylic acid] showed an EC50 of 100 to 1000 nM and a maximal effect (Emax) of over 85%.

Consider `CN(c1nc2c(OC(F)F)cc(C(=O)O)cc2n1C[C@@H]1CCO1)[C@H]1CC[C@H](c2cccc(OCc3ccc(C#N)cc3F)n2)CC1` [Compound 132, 2-(((1r,4S)-4-(6-((4-cyano-2-fluorobenzyl)oxy)pyridin-2-yl)cyclohexyl) (methyl)amino)-4-(difluoromethoxy)-1-(((S)-oxetan-2-yl)methyl)-1H-benzo[d]imidazole-6-carboxylic acid], for which the EC50 was under 10 nM and the maximal response (Emax) was over 85%.

As for `N#Cc1ccc(COc2cccc(C3CCN(Cc4nc5c(N)nc(C(=O)O)cc5n4C[C@@H]4CCO4)CC3)n2)c(F)c1` [Compound 134, (S)-4-amino-2-((4-(6-((4-cyano-2-fluorobenzyl)oxy)pyridin-2-yl)piperidin-1-yl)methyl)-1-(oxetan-2-ylmethyl)-1H-imidazo[4,5-c]pyridine-6-carboxylic acid], the EC50 was in the range of 10 to 100 nM and the Emax was over 85%.

Compound `Cn1c(CN2CCC(c3cccc(OCc4ccc(C#N)cc4F)n3)CC2)nc2c(OC(C)(C)C)cc(C(=O)O)cc21` [Compound 135, 4-(tert-Butoxy)-2-((4-(6-((4-cyano-2-fluorobenzyl)oxy)pyridin-2-yl)piperidin-1-yl)methyl)-1-methyl-1H-benzo[d]imidazole-6-carboxylic acid] returned an EC50 of 100 to 1000 nM and an Emax of over 85%.

Take `Cn1c(CN2CCC(c3cccc(Cl)c3OCc3ccc(C#N)cc3F)CC2)nc2c(OC(F)F)cc(C(=O)O)cc21` [Compound 138, 2-((4-(3-Chloro-2-((4-cyano-2-fluorobenzyl)oxy)phenyl)piperidin-1-yl)methyl)-4-(difluoromethoxy)-1-methyl-1H-benzo[d]imidazole-6-carboxylic acid]: the EC50 was over 1000 nM and the Emax is 25 to 50%.

Values taken from patent US20240368120A1 (Terns Pharmaceuticals, Inc., priority 2023, published 2024).
